This is an account of results in the NIST ThermoML archive (doi:10.1016/j.jct.2015.08.022).

Numbers after ± are expanded uncertainties.

For series [1] the following is noted: Crystal; DTA.
Series [2] in a line: Molar enthalpy of transition or fusion. To be noted: Crystal; DSC.

Turning to `Nc1ccc(C(=O)O)cc1` [4-aminobenzoic acid], in series [1], the Normal melting temperature was determined as 185.6 ± 0.4 °C. Besides, the “Molar enthalpy of transition or fusion” value in series [2] is 5.98 ± 0.167 kcal/mol.
For `NNC(=O)c1ccncc1` [isonicotinic acid hydrazide], in that order: 170.4 ± 0.4 °C and 7.43 ± 0.191 kcal/mol.
For `NC(=O)c1cnccn1` [pyrazinecarboxamide], in that order: 189.4 ± 0.4 °C and 6.48 ± 0.167 kcal/mol.
